According to US6169181A, “Compounds useful to treat retroviral infections” (Pharmacia & Upjohn Company, priority 1998, dated 2001):

Tests used:
HIV-1 protease [1] = biological target: T1, HIV-1 protease (Human immunodeficiency virus type 1 group M subtype B, UniProt P04585); assay: biochemical; settings: Table II, enzyme HIV-1
Summary of the method: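 A substrate biotinylated at the N-terminal arginine and FITC-labelled at the C-terminal lysine was incubated with HIV-1 protease (10 μl of 0.1 μM) and compound for 1 h in the dark at room temperature. Buffer was 0.1 M sodium acetate pH 5.5, 1.0 M NaCl, 0.05% NP-40. Labelled product was separated from substrate using streptavidin beads and filtration, and the fluorescence gave percent inhibition.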

HIV-1 protease [2] = biological target: T1, HIV-1 protease; assay: biochemical; settings: Table II; enzyme HIV-1; read-out: FITC KI
Summary of the method: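 Biotinylated, FITC-labelled peptide substrate cleaved in 0.1 M sodium acetate pH 5.5, 1.0 M NaCl, 0.05% NP-40, room temperature. Filtered labelled product read by fluorescence; nonlinear least-squares fit.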

Row | SMILES | PROTEASE % INHIB. (HIV-1 protease [1]; DOSE 0.123 (unit not given)) [%] | PROTEASE % INHIB. (HIV-1 protease [1]; DOSE 0.370 (unit not given)) [%] | PROTEASE % INHIB. (HIV-1 protease [1]; DOSE 1.100 (unit not given)) [%] | PROTEASE % INHIB. (HIV-1 protease [1]; DOSE 3.300 (unit not given)) [%] | PROTEASE % INHIB. (HIV-1 protease [1]; DOSE 10.000 (unit not given)) [%] | PROTEASE % INHIB. (HIV-1 protease [1]; DOSE 30.000 (unit not given)) [%] | Ki (HIV-1 protease [2]) [nM]
1 | CCCC1(CCc2ccccc2)CC(O)=C(C(c2cccc(NS(=O)(=O)c3ccc(C(F)(F)F)cn3)c2)C(C)(C)C)C(=O)O1 (centres unmarked) [Example 293, 5-Trifluoromethyl-N-[3-[1-[5,6-dihydro-4-hydroxy-2-oxo-6-(2-phenethyl)-6-n-propyl-2H-pyran-3-yl]-2,2-dimethylpropyl]-phenyl]-2-pyridinesulfonamide] | 53.45 | 77.51 | 94.18 | 103.03 | 97.41 | 92.01 | 4.3
2 | CCCC1(CCc2ccc(F)cc2)CC(O)=C(C(c2cccc(NS(=O)(=O)c3ccc(C#N)cc3)c2)C(C)(C)C)C(=O)O1 (centres unmarked) [Example 328, N-[3-{1-(4-Hydroxy-5,6-dihydro-2-oxo-6-(2-(4-fluorophenyl)ethyl)-6-propyl-2H-pyran-3-yl)-2,2-dimethylpropyl}phenyl]-4-cyanobenzenesulfonamide] | 27.81 | 79.47 | 95.45 | 96.77 | 96.78 | 92.17 | 22
3 | CCCC1(CCc2ccc(F)cc2)CC(O)=C(C(c2cccc(NS(=O)(=O)c3cccc4cccnc34)c2)C(C)(C)C)C(=O)O1 (centres unmarked) [Example 329, N-[3-{1-(4-Hydroxy-5,6-dihydro-2-oxo-6-(2-(4-fluorophenyl)ethyl)-6-propyl-2H-pyran-3-yl)-2,2-dimethylpropyl)phenyl]-8-quinolinesulfonamide] | 46.4 | 88.19 | 96.63 | 100.32 | 97.07 | 96.35 | 12
4 | CCC(C1=C(O)CC(CCc2ccc(F)cc2)(CCc2ccc(F)cc2)OC1=O)c1cccc(NS(=O)(=O)c2ccc(C(N)=O)cn2)c1 (centres unmarked) [Example 333, N-[3-{1-(4-Hydroxy-5,6-dihydro-2-oxo-6,6-bis(2-(4-fluorophenyl)ethyl)-2H-pyran-3-yl)propyl}phenyl]-5-carbamoylpyridine-2-sulfonamide] | 66.73 | 85.07 | 85.12 | 93.69 | 89.38 | 77.91 | 7.7
5 | Cn1cnc(S(=O)(=O)Nc2cccc(C(C3=C(O)CC(CCc4ccccc4)(CCc4ccccc4)OC3=O)C(C)(C)C)c2)c1 (centres unmarked) [Example 343, N-[3-{1-(4-Hydroxy-5,6-dihydro-2-oxo-6,6-bis(2-phenylethyl)-2H-pyran-3-yl)-2,2-dimethylpropyl}phenyl]-1-methyl-1H-imidazole-4-sulfonamide] | 57.5 | 76.83 | 81.02 | 86.43 | 60.56 | 46 | 2.9
6 | CC(C)(C)C(C1=C(O)CC(CCc2ccccc2)(CCc2ccccc2)OC1=O)c1cccc(NS(=O)(=O)c2ccc(C#N)cn2)c1 (centres unmarked) [Example 344, N-[3-{1-(4-Hydroxy-5,6-dihydro-2-oxo-6,6-bis(2-phenylethyl)-2H-pyran-3-yl)-2,2-dimethylpropyl}phenyl]-5-cyanopyridine-2-sulfonamide] | 47.37 | 72.84 | 81.17 | 83.08 | 68.47 | 46.24 | 5.9
7 | Nc1ccc(S(=O)(=O)Nc2cccc(CC3=C(O)CC(CCc4ccccc4)(CCc4ccccc4)OC3=O)c2)nc1 [Example 354, N-[3-{1-(4-Hydroxy-5,6-dihydro-2-oxo-6,6-bis(2-phenylethyl)-2H-pyran-3-yl)methyl}phenyl]-5-aminopyridine-2-sulfonamide] | < 10 | 10.37 | 26.79 | 46.1 | 54.97 | 54.5 | 665
8 | CCC(C1=C(O)C2CCCCCC2OC1=O)c1cccc(NS(=O)(=O)c2ccc(C#N)cn2)c1 (centres unmarked) [Example 372, 5-Cyano-N-[3-[1-(2,4a,5,6,7,8,9,9a-octahydro-4-hydroxy-2-oxocyclohepta[b]pyran-3-yl)propyl]phenyl]-2-pyridinesulfonamide] | 43.52 | 86.68 | 101.52 | 99.56 | 97.81 | 106.18 | 4
